Measurements from PMC5681660, “Reduced hepatitis B and D viral entry using clinically applied drugs as novel inhibitors of the bile acid transporter NTCP” (Scientific Reports, 2017).
Structures can show the parent of a compound that is named as a salt. Where two headings read alike, the source gives them in different places.

What was measured:
human NTCP [1] = target: T1, human NTCP (Homo sapiens, UniProt Q14973); assay: Screening taurocholate uptake assay (96-well, [14C]taurocholate, 10 µM drug)
T1 sequence (Q14973 1-349): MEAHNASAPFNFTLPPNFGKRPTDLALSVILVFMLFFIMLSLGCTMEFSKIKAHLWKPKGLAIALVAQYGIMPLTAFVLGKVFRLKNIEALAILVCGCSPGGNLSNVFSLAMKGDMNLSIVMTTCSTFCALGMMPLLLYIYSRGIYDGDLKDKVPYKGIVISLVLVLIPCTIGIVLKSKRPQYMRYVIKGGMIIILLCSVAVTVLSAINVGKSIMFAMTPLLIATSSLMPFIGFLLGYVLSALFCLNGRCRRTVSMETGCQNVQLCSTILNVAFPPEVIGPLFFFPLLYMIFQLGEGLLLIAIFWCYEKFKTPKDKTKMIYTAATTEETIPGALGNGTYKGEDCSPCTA

human NTCP [2] = target: T1, human NTCP; assay: Screening fluorescent competitive Myrcludex B-FITC binding assay (96-well, 10 µM drug)
[3] = Prestwick library screen, 10 µM drug, B-score of taurocholate uptake
[4] = combined ranking from functional and binding assay B-scores
[5] = Prestwick library screen, 10 µM drug, B-score of Myrcludex B-FITC binding
[6] = Prestwick library screen, taurocholate uptake, 10 µM drug
[7] = ranking score beside the functional and binding assay B-scores of the screen
[8] = Prestwick library screen, Myrcludex B-FITC binding, 10 µM drug
[9] = combined ranking from functional and binding screening assays
[10] = screen, 10 µM drug, taurocholate uptake
[11] = screen, 10 µM drug, Myrcludex B-FITC binding

Compound | B-score functional assay (human NTCP [1]; [3]) | Ranking score (human NTCP [1]; [4]) | B-score binding assay (human NTCP [2]; [5]) | B-score functional assay (human NTCP [1]; [6]) | Ranking score (human NTCP [1]; [7]) | B-score binding assay (human NTCP [2]; [8]) | Ranking score (human NTCP [1]; [9]) | B-score functional assay (human NTCP [1]; [10]) | B-score binding assay (human NTCP [2]; [11]) | other results
C[C@]12C[C@H]3S[C@H]3C[C@@H]1CC[C@@H]1[C@@H]2CC[C@]2(C)[C@@H](O)CC[C@@H]12 [Epitiostanol] | – | – | – | – | – | – | – | – | – | B-score functional assay (human NTCP [1]): 0.926; Ranking score (human NTCP [1]): 1032.88; B-score binding assay (human NTCP [2]): 0.911
CC[C@H]1OC(=O)[C@H](C)[C@@H](O[C@H]2C[C@@](C)(OC)[C@@H](O)[C@H](C)O2)[C@H](C)[C@@H](O[C@@H]2O[C@H](C)C[C@H](N(C)C)[C@H]2O)[C@](C)(O)C[C@@H](C)C(=O)[C@H](C)[C@@H](O)[C@]1(C)O [Erythromycin] | 3.026 | 1129.71 | 0.93 | – | – | – | – | – | – | –
COC(=O)CCc1ccc(OCC(O)CNC(C)C)cc1 (stereo not drawn) [Esmolol hydrochloride] | 0.736 | 1025.92 | 1.099 | – | – | – | – | – | – | –
CCCCC(=O)O[C@H]1CC[C@H]2[C@@H]3CCc4cc(O)ccc4[C@H]3CC[C@]12C [Estradiol Valerate] | – | – | – | -0.153 | 776.511 | 1.969 | – | – | – | –
C[C@]12CC[C@@H]3c4ccc(O)cc4CC[C@H]3[C@@H]1CCC2=O [Estrone] | 0.06 | 855.9 | 0.944 | – | – | – | – | – | – | –
O=C(Cn1ccnc1[N+](=O)[O-])NCCO [Etanidazole] | – | – | – | -0.015 | 680.728 | 0.108 | – | – | – | –
C=C(CC)C(=O)c1ccc(OCC(=O)O)c(Cl)c1Cl [Ethacrynic acid] | 0.935 | 1005.99 | 0.672 | – | – | – | – | – | – | –
O=S(=O)(O)c1cc(O)ccc1O [Ethamsylate] | 0.032 | 873.696 | 1.4 | – | – | – | – | – | – | –
CCOc1ccc(Cc2nccc3cc(OCC)c(OCC)cc23)cc1OCC [Ethaverine hydrochloride] | 0.024 | 885.91 | 1.651 | – | – | – | – | – | – | –
C#C[C@]1(O)CC[C@H]2[C@@H]3CCC4=CC(=O)CC[C@]4(C)[C@H]3CC[C@@]21C [Ethisterone] | – | – | – | -0.564 | 653.06 | 2.018 | – | – | – | –
CCN(CC)C(C)CN1c2ccccc2Sc2ccccc21 (stereo not drawn) [Ethopropazine hydrochloride] | – | – | – | 0.753 | 687.443 | -0.236 | – | – | – | –
CCC1(C)CC(=O)NC1=O (stereo not drawn) [Ethosuximide] | 1.817 | 1070.41 | 0.697 | – | – | – | – | – | – | –
CCN1C(=O)NC(c2ccccc2)C1=O (stereo not drawn) [Ethotoin] | 3.216 | 1133.18 | 0.936 | – | – | – | – | – | – | –
CCOc1ccc2c(c1)C(C)=CC(C)(C)N2 [Ethoxyquin] | – | – | – | – | – | – | 406.463 | 0.194 | -1.217 | –
CC(O)(P(=O)([O-])O)P(=O)([O-])O.[Na+].[Na+] [Etidronic acid, disodium salt] | – | – | – | -0.023 | 776.081 | 0.806 | – | – | – | –
Cn1c(=O)c2c(ncn2CCO)n(C)c1=O [Etofylline] | – | – | – | 0.319 | 831.39 | 0.258 | – | – | – | –
CCOC(=O)c1cncn1[C@H](C)c1ccccc1 [Etomidate] | 5.522 | 852.333 | -0.068 | – | – | – | – | – | – | –
COc1cc([C@@H]2c3cc4c(cc3[C@@H](O[C@@H]3O[C@@H]5CO[C@@H](C)O[C@H]5[C@H](O)[C@H]3O)[C@H]3COC(=O)[C@H]23)OCO4)cc(OC)c1O [Etoposide] | – | – | – | – | – | – | 333.467 | -1.678 | 0.046 | –
Cc1ccc(-c2ncc(Cl)cc2-c2ccc(S(C)(=O)=O)cc2)cn1 [Etoricoxib] | – | – | – | – | – | – | 393.756 | -0.663 | -0.254 | –
CCOC(=O)/C=C(C)/C=C/C=C(C)/C=C/c1c(C)cc(OC)c(C)c1C [Etretinate] | – | – | – | 0.504 | 712.48 | -0.079 | – | – | – | –
CC1CC(OC(=O)C(O)c2ccccc2)CC(C)(C)N1C (stereo not drawn) [Eucatropine hydrochloride] | 0.117 | 950.91 | 1.847 | – | – | – | – | – | – | –
NC(N)=Nc1nc(CSCCC(N)=NS(N)(=O)=O)cs1 [Famotidine] | – | – | – | 0.754 | 828.628 | 0.039 | – | – | – | –

Compound | B-score functional assay (human NTCP [1]; [3]) | Ranking score (human NTCP [1]; [4]) | B-score binding assay (human NTCP [2]; [5]) | B-score functional assay (human NTCP [1]; [6]) | Ranking score (human NTCP [1]; [7]) | B-score binding assay (human NTCP [2]; [8]) | Ranking score (human NTCP [1]; [9]) | B-score functional assay (human NTCP [1]; [10]) | B-score binding assay (human NTCP [2]; [11]) | other results
CC(C)c1c(CN(C)C(C)Cc2ccccc2)n(C)n(-c2ccccc2)c1=O (stereo not drawn) [Famprofazone] | – | – | – | – | – | – | 376.915 | -0.708 | -0.284 | –
O=C(O)CCC(=O)c1ccc(-c2ccccc2)cc1 [Fenbufen] | – | – | – | – | – | – | 326.986 | -1.216 | -0.209 | –
CC(NCCC(c1ccccc1)c1ccccc1)c1ccccc1 (stereo not drawn) [Fendiline hydrochloride] | 0.662 | 880.552 | 0.223 | – | – | – | – | – | – | –
CCCCC(O)c1ccccc1 (stereo not drawn) [Fenipentol] | – | – | – | – | – | – | 460.361 | -0.409 | -0.138 | –
CC(C(=O)[O-])c1cccc(Oc2ccccc2)c1.CC(C(=O)[O-])c1cccc(Oc2ccccc2)c1.O.O.[Ca+2] (stereo not drawn) [Fenoprofen calcium salt dihydrate] | – | – | – | – | – | – | 452.388 | -0.759 | 0.022 | –
CC(Cc1ccc(O)cc1)NCC(O)c1cc(O)cc(O)c1 (stereo not drawn) [Fenoterol hydrobromide] | – | – | – | – | – | – | 457.393 | 1.4 | -1.328 | –
O=C1NCC2(CCN(CCc3ccccc3)CC2)O1 [Fenspiride hydrochloride] | – | – | – | 0.107 | 788.391 | 0.26 | – | – | – | –
O=C(O)Cc1sc(-c2ccccc2)nc1-c1ccc(Cl)cc1 [Fentiazac] | – | – | – | – | – | – | 402.269 | -1.501 | 0.475 | –
CC(C)(C)NC(=O)[C@H]1CC[C@H]2[C@@H]3CC[C@H]4NC(=O)C=C[C@]4(C)[C@H]3CC[C@]12C [Finasteride] | – | – | – | – | – | – | 406.586 | -1.623 | 0.768 | –
Cc1c(-c2ccccc2)oc2c(C(=O)OCCN3CCCCC3)cccc2c1=O [Flavoxate hydrochloride] | – | – | – | -0.169 | 734.394 | 1.224 | – | – | – | –
O=C(NCC1CCCCN1)c1cc(OCC(F)(F)F)ccc1OCC(F)(F)F (stereo not drawn) [Flecainide acetate] | – | – | – | – | – | – | 448.174 | -1.076 | 0.272 | –
O=c1[nH]c(=O)n([C@H]2C[C@H](O)[C@@H](CO)O2)cc1F [Floxuridine] | – | – | – | 0.659 | 772.114 | -0.009 | – | – | – | –
COC(=O)Nc1nc2cc(C(=O)c3ccc(F)cc3)ccc2[nH]1 [Flubendazol] | – | – | – | 1.185 | 683.74 | -0.335 | – | – | – | –
Cc1onc(-c2c(F)cccc2Cl)c1C(=O)N[C@@H]1C(=O)N2[C@@H]1SC(C)(C)[C@@H]2C(=O)O [Flucloxacillin sodium] | 0.761 | 1024.7 | 1.029 | – | – | – | – | – | – | –
Nc1[nH]c(=O)ncc1F [Flucytosine] | – | – | – | – | – | – | 352.224 | -1.554 | 0.063 | –
Nc1nc(F)nc2c1ncn2[C@@H]1O[C@H](CO)[C@@H](O)[C@@H]1O [Fludarabine] | – | – | – | 1.199 | 822.35 | -0.02 | – | – | – | –
CC(=O)OCC(=O)[C@@]1(O)CC[C@H]2[C@@H]3CCC4=CC(=O)CC[C@]4(C)[C@@]3(F)[C@@H](O)C[C@@]21C [Fludrocortisone acetate] | – | – | – | – | – | – | 430.869 | 0.011 | -0.826 | –
CC1CCc2cc(F)cc3c(=O)c(C(=O)O)cn1c23 (stereo not drawn) [Flumequine] | 2.117 | 855.599 | -0.028 | – | – | – | – | – | – | –
Fc1ccc(C(c2ccc(F)cc2)N2CCN(C/C=C/c3ccccc3)CC2)cc1 [Flunarizine dihydrochloride] | – | – | – | 0.875 | 816.419 | 0.001 | – | – | – | –
CC1(C)O[C@@H]2C[C@H]3[C@@H]4C[C@H](F)C5=CC(=O)C=C[C@]5(C)[C@H]4[C@@H](O)C[C@]3(C)[C@]2(C(=O)CO)O1 [Flunisolide] | – | – | – | 0.152 | 805.548 | 0.284 | – | – | – | –
CC1(C)O[C@@H]2C[C@H]3[C@@H]4C[C@H](F)C5=CC(=O)C=C[C@]5(C)[C@@]4(F)[C@@H](O)C[C@]3(C)[C@]2(C(=O)CO)O1 [Fluocinolone acetonide] | – | – | – | 0.621 | 752.533 | -0.033 | – | – | – | –
